Laboratory results reported in patent publication US20230058279A1, “HERBICIDE COMPOSITIONS WITH AUXIN HERBICIDE MONOETHANOLAMINE SALTS WITH IMPROVED PROPERTIES” (MONSANTO TECHNOLOGY LLC, priority 2020, published 2023).

Experiment: Partition coefficient of compound (A) in solvents
Assay type: physicochemical
Conditions: HPLC
Method: Experimental procedure for the respective solvent: (1) A solution of 10 g of compound (A) is prepared in 90 g of the respective solvent. (2) An aliquot of 10 g of the solution obtained in step (1) is added to 90 g of water in a glass bottle, which is shaken on a mechanical shaker for 4 hours at ambient temperature (approximately 25° C.). (3) The contents of the glass bottle are permitted to phase separate for 4 days at ambient temperature (approximately 25° C.). (4) Subsamples of the resulting oil and water phases are taken and analyzed by HPLC to determine the concentrations of compound (A) in oil (Co) and water phases (Cw) respectively. The subsamples are typically centrifuged before HPLC analysis to remove traces of organic solvent from the water phase.
A Partition Coefficient, analogous to the Octanol-Water Partition Coefficient, P, is calculated as Co/Cw. The Partition Coefficient is conveniently expressed as a logarithm […].
The ratio of determined concentrations of compound (A) in the solvent phase and the water phase typically is very large. […] In other cases, traces of the organic solvent are found in the water phase, even after centrifugation, so that the apparent concentration of oil-soluble herbicide observed in the water phase is misleadingly high. […]

In the case of `CCOC(=O)COc1ncccc1Oc1cc(-n2c(=O)cc(C(F)(F)F)n(C)c2=O)c(F)cc1Cl` [Cmp. A, ethyl [3-[2-chloro-4-fluoro-5-(1-methyl-6-trifluoromethyl-2,4-dioxo-1,2,3,4-tetrahydropyrimidin-3-yl)phenoxy]-2-pyridyloxy]acetate], the “compound (A) in the water phase” value (acetophenone as organic solvent) is reported as “undetectable” and the “compound (A) in the water phase” value (aromatic 200ND as organic solvent) is reported as “undetectable”.
